Source: US20180255777A1, “Metal Ion Complex-Modified Layered Silicates” (priority 2017, published 2018)

System: E. coli
Assay: Disk diffusion method, zone of inhibition
Type: cell-based, Escherichia coli
Procedure: Working solutions were prepared by dissolving of N-alkylimidazoles (100 mg) in ethanol (50 μL). Blank disks were impregnated with 10 μL of solution and the disks placed on nutrient agar containing a confluent E. coli culture. The plates were incubated at 37° C. for 18-24 h and antimicrobial activity determined by measuring the zone of inhibition. The experiments were performed in triplicate.
The antibacterial activity of N-alkylimidazoles was investigated by the disk diffusion and broth methods against E. coli as a model microorganism.

## silver(I)-N-octylimidazole complex [Ag(octlm)2]
Disk diffusion against E. coli, comparison across alkyl chain lengths
  antibacterial activity (in words): superior activity
Disk diffusion, nutrient agar with confluent E. coli culture, 37° C., 18-24 h, triplicate
  Zone of inhibition diameter: 21 ± 1.4 mm
